# From patent publication US11325955B2, “Stabilized anti-microbial peptides for the treatment of antibiotic-resistant bacterial infections” (priority 2017, dated 2022)
# Like-named read-outs stand apart in the source and are kept apart here. Positions of bridges follow the written chain, without caps; N, C: chain ends. Non-standard residues stand in square brackets, D forms with d. Residues, ends and D or L forms follow the SMILES beside them. S5 = C=CCCC[C@](C)(N)C(=O)O; Nle = CCCC[C@H](N)C(=O)O
# Tests used:
# [1] = tested on: E. coli clinical isolates that harbor the MCR-1 plasmid; format: cell-based
# Protocol: StAMPs were screened against a panel of MDR clinical samples obtained from the Antimicrobial Resistance Isolate Bank of the Centers for Disease Control and Prevention (Atlanta, Ga.).
# (§1) The following microbroth dilution protocol was adapted to determine the minimum inhibitory concentration (MIC) of each peptide. First, Mueller-Hinton broth (MHB) was passed through an anion exchange column to remove polyanionic species and generate refined MHB. […] Briefly, bacterial cells were grown overnight in refined MHB at 37° C. and then diluted and allowed to grow again for several hours. Serial dilutions of peptide stocks in water (10 μl) were prepared using clear round-bottom polypropylene 96-well plates. Then 90 μl of bacteria in refined MHB was added to give a final inoculum of 5×10^5 CFU/ml. The plates were then covered with porous tape to reduce evaporation, and incubated for 20-24 hours at 37° C. The MIC is the minimum peptide concentration at which no visible growth was observed.
# The first three StAMPs of Table 2 in Example 3 were then tested against 39 clinical isolates of A. baumannii with various degrees of colistin resistance (Table 3, 4).
# [2] = tested on: human red blood cells (RBCs); assay: Hemolytic activity assay; format: cell-based; details: peptide at 25 μg/ml, 1 hour at 37° C.
# Protocol: For the determination of hemolytic activity, human blood samples were centrifuged to isolate red blood cells (RBCs), which are then washed and suspended in phosphate-buffered saline to yield a 1% (v/v) suspension. The suspension was then added to serial dilutions of peptide stocks in water in clear round-bottom polypropylene 96-well plates and the plates were incubated for 1 hour at 37° C. After incubation, the plates were centrifuged and the supernatant was isolated to determine the amount of hemoglobin released using a spectrophotometer (570 nm), according to the equation: % Hemolysis=(Treated Absorbance−Untreated Control Absorbance)/(1% Triton-X100 Treated Absorbance−Untreated Control Absorbance). The minimum hemolytic concentration (MHC) is the peptide concentration at which there is less than 1% hemoglobin release.
# [3] = tested on: primary human renal proximal tubule epithelial cells (pRPTECs); assay: Renal toxicity assay (pRPTEC lysis, LDH release)
# Protocol: (§2) In one embodiment, pRPTECs are seeded at a density of 10,000 cells per well on 96 well plates and incubated for 48 hours at 37° C. Cells are then treated with different concentrations of the StAMP and incubated for another 24-to-48 hour period. Cell viability is then determined and/or lactate dehydrogenase (LDH) release is measured.
# (§3) Briefly, pRPTECs in complete growth cell medium were seeded in a 96 well plate at a density of 10,000 cells per well and incubated at 37° C. for 48 hours. Complete medium was then removed and replaced with a toxicity assay medium to which various concentrations of StAMP were added. Cells were then further incubated for 24 to 48 hours after which cell medium was collected and assayed for the presence of Lactate Dehydrogenase (LDH) using a Cytotoxicity Detection Kit (LDH) (Roche).
# A baumannii = format: cell-based
# Protocol: as §1
# P aeruginosa = format: cell-based
# Protocol: as §1
# S aureus = format: cell-based
# Protocol: as §1
# E coli = format: cell-based
# Protocol: as §1
# B cereus = format: cell-based
# Protocol: as §1
# [4] = tested on: primary human renal proximal tubule epithelial cells (pRPTECs); details: for pRPTEC lysis (% LDH release) compared to Mag(i+4)1,15(A9K): 90 minute incubation, FIG. 2; for pRPTEC lysis (% LDH release), long-term lytic activity: 48 hours incubation, FIG. 3
# Protocol: as §2, §3
compound,measurement,setting,value
"CCCC[C@H](NC(=O)[C@]1(C)CCCC=CCCC[C@](C)(NC(=O)[C@H](C)NC(=O)[C@H](CCCCN)NC(=O)CNC(=O)[C@H](Cc2ccccc2)NC(=O)[C@H](CCCCN)NC(=O)[C@H](CCCCN)NC(=O)[C@H](CCCCN)NC(=O)[C@H](CO)NC(=O)[C@H](Cc2c[nH]cn2)NC(=O)[C@]2(C)CCCC=CCCC[C@](C)(NC(=O)CN)C(=O)NCC(=O)N[C@@H](CCCCN)C(=O)N[C@@H](Cc3ccccc3)C(=O)N2)C(=O)N[C@@H](C(C)C)C(=O)NCC(=O)N[C@@H](CCC(=O)O)C(=O)N1)C(=O)N[C@@H](CC(N)=O)C(=O)N[C@@H](CO)C(N)=O [Mag(i+4)1,15(A9K), GXGKFXHSKKKFGKAXVGEXBNS] (H-G[S5]GKF[S5]HSKKKFGKA[S5]VGE[S5][Nle]NS-NH2; staple 2-6, 16-20)",Antimicrobial Activity MIC,"[1]; E. coli CDC Bank# 346, contains MCR-1 plasmid",1.6 µg/mL
same,Antimicrobial Activity MIC,"[1]; E. coli CDC Bank# 349, contains MCR-1 plasmid",3.1 µg/mL
same,% Hemolysis at 25 μg/ml,[2],1.9%
same,toxicity on pRPTECs (membranolysis),[3],could cause membranolysis of pRPTECs at relatively low concentrations
same,MIC A baumannii,A baumannii,1.6 µg/mL
same,MIC P aeruginosa,P aeruginosa,3.1 µg/mL
same,MIC S aureus,S aureus,50 µg/mL
same,MIC E coli,E coli,1.6 µg/mL
same,MIC B cereus,B cereus,6.2 µg/mL
"CC(C)[C@@H]1NC(=O)[C@@](C)(NC(=O)[C@H](C)NC(=O)[C@H](CCCCN)NC(=O)CNC(=O)[C@H](Cc2ccccc2)NC(=O)[C@H](CCCCN)NC(=O)[C@H](CCCCN)NC(=O)[C@H](CCCCN)NC(=O)[C@H](CO)NC(=O)[C@H](Cc2c[nH]cn2)NC(=O)[C@]2(C)CCCC=CCCC[C@](C)(NC(=O)CN)C(=O)NCC(=O)N[C@@H](CCCCN)C(=O)N[C@@H](Cc3ccccc3)C(=O)N2)CCCC=CCCC[C@@](C)(C(=O)N[C@@H](CCCCN)C(=O)N[C@@H](CC(N)=O)C(=O)N[C@@H](CO)C(N)=O)NC(=O)[C@H](CCC(=O)O)NC(=O)CNC1=O [Mag(i+4)1,15(A9K, B21K), GXGKFXHSKKKFGKAXVGEXKNS] (H-G[S5]GKF[S5]HSKKKFGKA[S5]VGE[S5]KNS-NH2; staple 2-6, 16-20)","pRPTEC lysis (% LDH release) compared to Mag(i+4)1,15(A9K)",[4],markedly reduced lytic activity toward pRPTECs
same,"pRPTEC lysis (% LDH release), long-term lytic activity",[4],lowered long-term lytic activity
same,MIC A baumannii,A baumannii,1.6 µg/mL
same,MIC P aeruginosa,P aeruginosa,12.5 µg/mL
same,MIC S aureus,S aureus,>50 µg/mL
same,MIC E coli,E coli,3.1 µg/mL
same,MIC B cereus,B cereus,35.4 µg/mL
"CC(C)[C@@H]1NC(=O)[C@@](C)(NC(=O)[C@H](C)NC(=O)[C@H](CCCCN)NC(=O)CNC(=O)[C@H](Cc2ccccc2)NC(=O)[C@H](CCCCN)NC(=O)[C@H](CCCCN)NC(=O)[C@H](CCCCN)NC(=O)[C@H](CO)NC(=O)[C@H](Cc2c[nH]cn2)NC(=O)[C@]2(C)CCCC=CCCC[C@](C)(NC(=O)CN)C(=O)NCC(=O)N[C@@H](CCCCN)C(=O)N[C@@H](Cc3ccccc3)C(=O)N2)CCCC=CCCC[C@@](C)(C(=O)N[C@@H](C)C(=O)N[C@@H](CCCCN)C(=O)N[C@@H](CCCCN)C(N)=O)NC(=O)[C@H](CCC(=O)O)NC(=O)CNC1=O [Mag(i+4)1,15(A9K, B21A, N22K, S23K), GXGKFXHSKKKFGKAXVGEXAKK] (H-G[S5]GKF[S5]HSKKKFGKA[S5]VGE[S5]AKK-NH2; staple 2-6, 16-20)","pRPTEC lysis (% LDH release) compared to Mag(i+4)1,15(A9K)",[4],markedly reduced lytic activity toward pRPTECs
same,"pRPTEC lysis (% LDH release), long-term lytic activity",[4],lowered long-term lytic activity
same,MIC A baumannii,A baumannii,0.8 µg/mL
same,MIC P aeruginosa,P aeruginosa,3.1 µg/mL
same,MIC S aureus,S aureus,>50 µg/mL
same,MIC E coli,E coli,1.6 µg/mL
same,MIC B cereus,B cereus,50 µg/mL
